Results reported in patent US6800630B2, “Pyrimidine derivatives having antitumor effect” (Shionogi & Co., Ltd., priority 2000, dated 2004).
≈ marks a conversion by molar mass, not a printed value.

Legend:
Type in all cases: cell-based
[1] = system: DT-C cells (pGV-P transfected v-ki-ras-transformed NIH373 cells); test: Luciferase activity of DT-C control cells (IC50-C), index of non-specific transcription-inhibitory effect or cytotoxicity; conditions: tested concentration nearest to 50% inhibition in DT-C cells
Excerpt: (§1) Test Example 1 Inhibitory effect against cellular signaling derived from Ras oncogene products
(§2) Based on the reporter plasmid (pGV-P (Toyo Ink, Japan)), in which luciferase gene was ligated to SV40-derived minimal promoter, we constructed a plasmid designated pRRE3-luc by inserting 3 copies of chemically synthesized oligonucleotides (Sequence: CAGGATATGACTCT, derived from mouse NVL-3 (M. A. Reddy et al.(1992)Mol. Endocrinol., 6, 1051)) into upstream of the promoter. v-ki-ras-transformed NIH373 cells (DT cells, provided by Dr. Makoto Noda (Kyoto Univ., School of medicine)) were transfected with this plasmid by liposome-mediated transfection and transfected cell lines stably incorporated and maintained each plasmid were obtained. We named pGV-P and pRRE3-transfected cell line as DT-C and DT-R, respectively and used in the assay described below.
(§3) i) All the cell lines were cultured in Dulbecco's Modified Essential Medium (DMEM: 10% Fetal Calf Serum(FCS: Hyclone, USA)) including […] kanamycin (Meiji Seika, Japan) in humidified incubator under condition of 5% CO2 at 37° C.
(§4) ii) DT-C and DT-R cells were seeded at 2500 cells/well into flat-bottom 96 well multiplate (Sumitomo bakelite) and incubated for 24 hours.
(§5) iii) Test compounds were prepared as 1 mg/ml DMSO solution.
(§6) iv) The solution of test compounds were added to the culture. Tested compounds are used at the concentration from […] to 0.51 ng/ml with 3-fold dilution.
(§7) v) After 24 hours, the culture supernatant was completely aspirated and 20 μl of cell-lysing solution (PGC-50 (Toyo Ink, Japan)) was added before cells were dried up. In order to lyse the cells completely, multiwell plates were left at room temperature for 10 to 30 min. The plates were wrapped up and stored at −20° C. till the day of measurement.
(§8) i) Melt the samples by putting 96 well multiplate at 37° C. and add 90 μl/well 25 mM Tris (pH 7.5).
(§9) ii) Transfer 50 μl of the sample (110 μl) to the 96 well microplate (Microlite 1 (Dynatech)) for measurement.
(§10) iii) Measure the samples by the luminometer, LUMINOUS CT9000D (Dia-Yatron, Japan). We used Pickagene luminescence kit PGL2000 or LT2.0 (Toyo Ink, Japan) as enzyme substrates for luminescence measurement (50 μl/well).
(§11) i) The luciferase activity of DT-C cells and DT-R cells were plotted in the graph where the relative activity and the compound concentration were expressed as Y-axis and X-axis, respectively. We judged by the degree of dissociation between the activities of DT-C cells and DT-R cells as an index.
b) Among the points of concentration tested, the concentration which is the nearest to 50% inhibition concentration at DT-C cells (IC50-C), was shown as an index of non-specific transcription-inhibitory effect or of cytotoxicity. In case of positive compounds, 50% inhibition concentration in DT-C cells which was higher than the active concentration was expressed as IC50-C.

[2] = system: human pancreas cancer PANC-1; test: In vitro cell growth inhibition test, MTT assay; conditions: MTT assay 4 days after compound addition
Excerpt: (§12) Test Example 2 In vitro cell growth inhibition test Cells and MTT assay
(§13) Human squamous lung cancer […], human squamous lung cancer Ma44, human lung adenocarcinoma A549, human colon cancer HT29 and human pancreas cancer PANC-1 were used.

[3] = system: human lung adenocarcinoma A549; test: In vitro cell growth inhibition test, MTT assay; conditions: MTT assay 4 days after compound addition
Excerpt: as §12, §13

[4] = system: human colon cancer HT29; test: In vitro cell growth inhibition test, MTT assay; conditions: MTT assay 4 days after compound addition
Excerpt: as §12, §13

[5] = system: human squamous lung cancer Ma44; test: In vitro cell growth inhibition test, MTT assay; conditions: MTT assay 4 days after compound addition
Excerpt: as §12, §13

[6] = system: signal derived from Ras oncogene products (DT-R cells, pRRE3-luc transfected v-ki-ras-transformed NIH373 cells); test: Inhibitory effect against cellular signaling derived from Ras oncogene products: RRE-luciferase reporter, Minimal Active Concentration (MAC) at which DT-C and DT-R activities dissociate; conditions: minimal concentration at which luciferase activities of DT-C and DT-R cells dissociated
Excerpt: as §1, §2, §3, §4, §5, §6, §7, §8, §9, §10, §11
ii) Concretely, efficacy of the compound was expressed by two values described below.
a) Among the points of concentration tested, the minimal concentration (Minimal Active Concentration: MAC), at which the activities of DT-C cells and DT-R cells dissociated, was shown as an index of efficacy of the compound.

[7] = system: H460; test: In vitro cell growth inhibition test, MTT assay; conditions: MTT assay 4 days after compound addition
Excerpt: [The source words this procedure for another cell line and reports this cell line under the same test.] as §12, §13

[8] = system: human squamous lung cancer RERF-RC-AI; test: In vitro cell growth inhibition test, MTT assay; conditions: MTT assay 4 days after compound addition
Excerpt: as §12, §13

Row | SMILES | IC50 (IC50-C) [1] | IC50 PANC-1 [2] | IC50 A549 [3] | IC50 HT-29 [4] | IC50 Ma44 [5] | MAC (Minimal Active Concentration) [6] | IC50 H460 [7] | IC50 RERF-LC-AI [8]
1 | CCNC(=Nc1nc(C)ncc1CSc1nnc(-c2ccc(N)cc2)o1)SC [Compound A-11] | >10 mg/L | 0.0064 mg/L (≈ 0.0154 µM) | 0.014 mg/L (≈ 0.0337 µM) | 0.0067 mg/L (≈ 0.0161 µM) | 0.077 mg/L (≈ 0.185 µM) | 0.0412 µg/mL | – | –
2 | CCSC(=Nc1nc(C)ncc1CSc1nnc(-c2ccc([N+](=O)[O-])cc2)o1)NC [Compound A-5] | – | 0.0665 mg/L (≈ 0.149 µM) | 0.07 mg/L (≈ 0.157 µM) | 0.0484 mg/L (≈ 0.109 µM) | 0.0446 mg/L (≈ 0.1 µM) | 0.123 µg/mL | 0.089 mg/L (≈ 0.2 µM) | 0.033 mg/L (≈ 0.0741 µM)
3 | CNC(=Nc1nc(C)ncc1CSc1nnc(-c2ccc([N+](=O)[O-])cc2)o1)SC [Compound A-1] | >10 mg/L | 0.046 mg/L (≈ 0.107 µM) | 0.0009 mg/L (≈ 0.00209 µM) | 0.045 mg/L (≈ 0.104 µM) | 0.12 mg/L (≈ 0.278 µM) | 1.11 µg/mL | – | –
4 | CCNC(=Nc1nc(C)ncc1CSc1nnc(-c2ccc([N+](=O)[O-])cc2)o1)OC [Compound A-32] | >10 mg/L | 0.034 mg/L (≈ 0.0792 µM) | 0.064 mg/L (≈ 0.149 µM) | 0.031 mg/L (≈ 0.0722 µM) | 0.042 mg/L (≈ 0.0978 µM) | 0.123 µg/mL | – | 0.031 mg/L (≈ 0.0722 µM)
5 | CCSC(=Nc1nc(C)ncc1CSc1nnc(-c2ccc(N)cc2)o1)NC [Compound A-13] | – | 0.0077 mg/L (≈ 0.0185 µM) | 0.015 mg/L (≈ 0.0361 µM) | 0.0089 mg/L (≈ 0.0214 µM) | 0.03 mg/L (≈ 0.0722 µM) | 0.0137 µg/mL | – | –
6 | CCNC(=Nc1nc(C)ncc1C(C)Sc1nnc(-c2ccc([N+](=O)[O-])cc2)o1)SC (racemic) [Compound A-22] | >10 mg/L | – | – | – | 0.042 mg/L (≈ 0.0914 µM) | 1.11 µg/mL | – | –
7 | CNC(=Nc1nc(C)ncc1CSc1nnc(-c2ccc([N+](=O)[O-])cc2)o1)OC(C)C [Compound A-34] | >10 mg/L | 0.0075 mg/L (≈ 0.0169 µM) | 0.021 mg/L (≈ 0.0474 µM) | 0.0046 mg/L (≈ 0.0104 µM) | 0.0091 mg/L (≈ 0.0205 µM) | 0.0137 µg/mL | – | 0.013 mg/L (≈ 0.0293 µM)
8 | CCNC(=Nc1nc(C)ncc1CSc1nnc(-c2ccc([N+](=O)[O-])cc2)o1)OC(C)C [Compound A-35] | >10 mg/L | 0.0054 mg/L (≈ 0.0118 µM) | 0.011 mg/L (≈ 0.024 µM) | 0.0033 mg/L (≈ 0.00721 µM) | 0.0069 mg/L (≈ 0.0151 µM) | 0.0412 µg/mL | – | 0.0067 mg/L (≈ 0.0146 µM)
9 | CCNC(=Nc1nc(C)ncc1CSc1nnc(-c2ccc([N+](=O)[O-])cc2)o1)SCC [Compound A-6] | – | 0.0148 mg/L (≈ 0.0322 µM) | 0.0256 mg/L (≈ 0.0557 µM) | 0.0244 mg/L (≈ 0.0531 µM) | 0.0182 mg/L (≈ 0.0396 µM) | 0.0412 µg/mL | 0.0256 mg/L (≈ 0.0557 µM) | 0.015 mg/L (≈ 0.0326 µM)
